Data: ChEMBL document CHEMBL5550160, “Leveraging a rationally designed veliparib-based anilide eliciting anti-leukemic effects for the design of pH-responsive polymer nanoformulation” (Eur J Med Chem, 2024)
Active and inactive are the calls of the source. The calls are words filed in the database; no cut-off is given here.

Legend:
[1] = molecular target: T1, Histone deacetylase 7 (Homo sapiens) (UniProt Q8WUI4); test: Inhibition of HDAC7 (unknown origin) assessed as residual activity at 3.33 x 10^-6M (reference value: 102.66%); details: dose 3.33 10^-6M
T1 sequence (whole entry): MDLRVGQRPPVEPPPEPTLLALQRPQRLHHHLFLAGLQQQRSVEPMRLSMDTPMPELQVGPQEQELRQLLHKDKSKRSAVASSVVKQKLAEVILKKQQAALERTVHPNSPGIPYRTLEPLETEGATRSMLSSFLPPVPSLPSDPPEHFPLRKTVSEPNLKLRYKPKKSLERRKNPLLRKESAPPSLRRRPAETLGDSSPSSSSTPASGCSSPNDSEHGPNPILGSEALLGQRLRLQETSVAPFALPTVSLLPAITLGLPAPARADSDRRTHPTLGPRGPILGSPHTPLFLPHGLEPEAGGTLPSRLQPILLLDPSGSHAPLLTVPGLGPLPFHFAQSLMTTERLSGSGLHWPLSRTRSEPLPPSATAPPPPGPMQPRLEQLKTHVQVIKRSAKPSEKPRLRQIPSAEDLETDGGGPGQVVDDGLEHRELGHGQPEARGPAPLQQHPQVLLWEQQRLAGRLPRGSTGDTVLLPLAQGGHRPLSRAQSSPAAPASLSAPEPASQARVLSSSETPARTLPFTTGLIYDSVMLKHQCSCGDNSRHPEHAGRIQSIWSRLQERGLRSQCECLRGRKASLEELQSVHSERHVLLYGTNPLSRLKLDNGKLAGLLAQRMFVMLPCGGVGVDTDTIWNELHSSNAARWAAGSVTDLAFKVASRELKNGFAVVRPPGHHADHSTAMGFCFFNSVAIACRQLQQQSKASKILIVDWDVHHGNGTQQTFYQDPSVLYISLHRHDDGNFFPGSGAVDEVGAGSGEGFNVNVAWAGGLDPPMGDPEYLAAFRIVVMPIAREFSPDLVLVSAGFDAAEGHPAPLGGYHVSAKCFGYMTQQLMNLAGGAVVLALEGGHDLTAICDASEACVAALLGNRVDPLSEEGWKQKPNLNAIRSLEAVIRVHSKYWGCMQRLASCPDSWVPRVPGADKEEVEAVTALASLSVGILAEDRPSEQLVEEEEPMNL

[2] = molecular target: Class 1 histone deacetylase (Homo sapiens) (UniProt Q13547+O15379+Q92769+Q9BY41); test: Inhibition of class 1 HDAC in human HL-60 cells assessed as upregulation of acetyl histone H3 protein expression 0.5 to 1 times IC50 by Western blot analysis; type: cell-based
[3] = molecular target: Histone deacetylase 4 (Homo sapiens) (UniProt P56524); test: Inhibition of HDAC4 (unknown origin) assessed as residual activity at 4.57 x 10^-9M (reference value: 98.90%); details: dose 4.57 10^-9M
Sequence of Histone deacetylase 4 (Homo sapiens) (P56524 whole entry): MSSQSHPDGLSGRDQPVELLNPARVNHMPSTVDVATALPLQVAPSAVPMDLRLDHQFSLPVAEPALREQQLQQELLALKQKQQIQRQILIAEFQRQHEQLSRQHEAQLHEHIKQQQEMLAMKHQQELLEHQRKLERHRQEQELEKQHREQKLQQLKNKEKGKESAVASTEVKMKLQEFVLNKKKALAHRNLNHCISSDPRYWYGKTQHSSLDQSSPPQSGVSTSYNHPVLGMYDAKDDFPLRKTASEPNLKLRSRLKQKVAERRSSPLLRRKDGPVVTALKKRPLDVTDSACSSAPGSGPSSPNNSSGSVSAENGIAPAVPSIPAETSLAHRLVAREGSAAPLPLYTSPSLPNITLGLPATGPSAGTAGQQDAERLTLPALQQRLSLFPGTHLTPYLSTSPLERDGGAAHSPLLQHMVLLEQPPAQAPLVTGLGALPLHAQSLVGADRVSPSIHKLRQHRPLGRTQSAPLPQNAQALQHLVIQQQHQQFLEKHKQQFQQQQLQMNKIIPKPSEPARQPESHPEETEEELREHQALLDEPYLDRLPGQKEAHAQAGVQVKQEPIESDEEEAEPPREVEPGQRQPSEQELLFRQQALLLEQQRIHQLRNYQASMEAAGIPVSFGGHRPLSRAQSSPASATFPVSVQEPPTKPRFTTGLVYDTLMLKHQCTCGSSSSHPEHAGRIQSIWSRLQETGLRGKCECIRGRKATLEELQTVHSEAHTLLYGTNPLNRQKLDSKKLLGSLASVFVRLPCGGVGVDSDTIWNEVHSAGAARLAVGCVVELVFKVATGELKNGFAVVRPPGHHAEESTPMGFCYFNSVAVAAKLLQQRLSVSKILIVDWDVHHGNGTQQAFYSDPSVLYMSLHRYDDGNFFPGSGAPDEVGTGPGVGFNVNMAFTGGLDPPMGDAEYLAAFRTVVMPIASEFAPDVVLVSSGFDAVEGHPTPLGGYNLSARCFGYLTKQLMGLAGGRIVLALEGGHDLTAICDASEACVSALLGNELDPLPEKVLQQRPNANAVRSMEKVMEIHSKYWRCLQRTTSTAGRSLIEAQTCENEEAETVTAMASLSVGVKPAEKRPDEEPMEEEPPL

[4] = molecular target: T2, Histone deacetylase 8 (Homo sapiens) (UniProt Q9BY41); test: Inhibition of HDAC8 (unknown origin) assessed as residual activity at 3.70 x 10^-7M (reference value: 100%); details: dose 3.7 10^-7M
T2 sequence (whole entry): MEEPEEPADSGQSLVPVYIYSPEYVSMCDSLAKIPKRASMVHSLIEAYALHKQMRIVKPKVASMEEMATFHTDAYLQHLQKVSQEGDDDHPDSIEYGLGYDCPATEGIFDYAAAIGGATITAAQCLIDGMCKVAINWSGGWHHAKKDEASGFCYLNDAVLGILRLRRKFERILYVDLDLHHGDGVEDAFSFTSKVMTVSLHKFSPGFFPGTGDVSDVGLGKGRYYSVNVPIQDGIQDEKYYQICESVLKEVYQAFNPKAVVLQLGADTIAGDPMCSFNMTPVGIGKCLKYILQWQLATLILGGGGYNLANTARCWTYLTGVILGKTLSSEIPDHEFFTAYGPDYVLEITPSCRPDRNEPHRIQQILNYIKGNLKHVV

[5] = molecular target: Histone deacetylase 4 (Homo sapiens) (UniProt P56524); test: Inhibition of HDAC4 (unknown origin) assessed as residual activity at 5.08 x 10^-10M (reference value: 98.90%); details: dose 5.08 10^-10M
[6] = molecular target: T1, Histone deacetylase 7 (Homo sapiens); test: Inhibition of HDAC7 (unknown origin) assessed as residual activity at 4.57 x 10^-9M (reference value: 102.66%); details: dose 4.57 10^-9M
Histone deacetylase 3 = Histone deacetylase 3 (Homo sapiens, UniProt O15379); test: Inhibition of HDAC3 (unknown origin) using p53 residues 379 to 382 [RHKK(Ac)] as fluorogenic substrate assessed as residual activity at 1.52 x 10^-9M (reference value: 103.08%); details: dose 1.52 10^-9M
Sequence of Histone deacetylase 3 (O15379 whole entry, the tested form may be a part): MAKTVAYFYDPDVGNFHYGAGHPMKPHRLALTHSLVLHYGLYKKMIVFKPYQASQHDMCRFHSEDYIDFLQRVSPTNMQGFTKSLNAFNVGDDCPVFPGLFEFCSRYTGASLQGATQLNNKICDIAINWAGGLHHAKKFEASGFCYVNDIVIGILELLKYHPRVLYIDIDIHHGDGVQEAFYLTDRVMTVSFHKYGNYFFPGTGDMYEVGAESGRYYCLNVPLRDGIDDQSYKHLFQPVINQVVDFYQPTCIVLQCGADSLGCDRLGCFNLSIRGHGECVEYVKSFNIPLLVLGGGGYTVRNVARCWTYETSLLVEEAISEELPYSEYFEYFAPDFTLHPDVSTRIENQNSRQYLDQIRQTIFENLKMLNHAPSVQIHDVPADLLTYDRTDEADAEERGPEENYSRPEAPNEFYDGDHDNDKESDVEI

HL-60 = test: cells; details: Homo sapiens
Description: Antiproliferative activity against human HL-60 cells assessed as inhibition of cell growth by MTT assay

[7] = molecular target: Histone deacetylase 5 (Homo sapiens) (UniProt Q9UQL6); test: Inhibition of HDAC5 (unknown origin) assessed as residual activity at 1.1 x 10^-6M (reference value: 100%); details: dose 1.1 10^-6M
Sequence of Histone deacetylase 5 (Homo sapiens) (Q9UQL6 whole entry): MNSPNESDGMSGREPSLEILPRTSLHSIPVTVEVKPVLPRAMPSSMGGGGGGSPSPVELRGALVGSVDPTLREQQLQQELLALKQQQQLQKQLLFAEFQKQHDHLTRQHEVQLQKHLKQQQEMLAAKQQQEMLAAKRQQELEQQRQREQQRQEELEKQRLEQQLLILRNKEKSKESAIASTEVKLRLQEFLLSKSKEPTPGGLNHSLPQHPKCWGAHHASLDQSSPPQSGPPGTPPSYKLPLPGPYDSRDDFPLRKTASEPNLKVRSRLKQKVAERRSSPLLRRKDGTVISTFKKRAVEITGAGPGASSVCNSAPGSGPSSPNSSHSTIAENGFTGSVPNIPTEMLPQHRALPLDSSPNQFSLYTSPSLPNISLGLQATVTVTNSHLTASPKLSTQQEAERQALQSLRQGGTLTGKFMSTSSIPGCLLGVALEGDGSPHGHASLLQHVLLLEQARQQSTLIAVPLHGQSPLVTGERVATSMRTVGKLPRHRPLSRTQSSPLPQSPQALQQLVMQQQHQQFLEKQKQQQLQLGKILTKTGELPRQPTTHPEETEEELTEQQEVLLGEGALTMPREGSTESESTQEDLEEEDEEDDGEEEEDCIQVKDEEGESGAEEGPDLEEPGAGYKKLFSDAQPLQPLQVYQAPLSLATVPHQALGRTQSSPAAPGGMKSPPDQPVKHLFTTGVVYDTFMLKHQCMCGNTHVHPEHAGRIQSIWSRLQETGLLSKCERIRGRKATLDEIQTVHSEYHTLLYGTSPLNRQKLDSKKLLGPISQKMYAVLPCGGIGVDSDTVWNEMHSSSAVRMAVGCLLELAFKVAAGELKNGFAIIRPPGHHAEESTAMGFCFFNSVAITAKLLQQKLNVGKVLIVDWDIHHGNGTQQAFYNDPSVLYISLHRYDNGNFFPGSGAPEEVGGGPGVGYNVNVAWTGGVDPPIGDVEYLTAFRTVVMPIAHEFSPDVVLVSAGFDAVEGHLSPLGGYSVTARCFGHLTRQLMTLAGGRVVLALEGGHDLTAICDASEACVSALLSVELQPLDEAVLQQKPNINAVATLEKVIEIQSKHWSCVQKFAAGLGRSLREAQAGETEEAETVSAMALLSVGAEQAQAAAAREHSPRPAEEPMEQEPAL

[8] = molecular target: Histone deacetylase 9 (Homo sapiens) (UniProt Q9UKV0); test: Inhibition of HDAC9 (unknown origin) assessed as residual activity at 1.23 x 10^-7M (reference value: 97.55%); details: dose 1.23 10^-7M
Sequence of Histone deacetylase 9 (Homo sapiens) (Q9UKV0 whole entry): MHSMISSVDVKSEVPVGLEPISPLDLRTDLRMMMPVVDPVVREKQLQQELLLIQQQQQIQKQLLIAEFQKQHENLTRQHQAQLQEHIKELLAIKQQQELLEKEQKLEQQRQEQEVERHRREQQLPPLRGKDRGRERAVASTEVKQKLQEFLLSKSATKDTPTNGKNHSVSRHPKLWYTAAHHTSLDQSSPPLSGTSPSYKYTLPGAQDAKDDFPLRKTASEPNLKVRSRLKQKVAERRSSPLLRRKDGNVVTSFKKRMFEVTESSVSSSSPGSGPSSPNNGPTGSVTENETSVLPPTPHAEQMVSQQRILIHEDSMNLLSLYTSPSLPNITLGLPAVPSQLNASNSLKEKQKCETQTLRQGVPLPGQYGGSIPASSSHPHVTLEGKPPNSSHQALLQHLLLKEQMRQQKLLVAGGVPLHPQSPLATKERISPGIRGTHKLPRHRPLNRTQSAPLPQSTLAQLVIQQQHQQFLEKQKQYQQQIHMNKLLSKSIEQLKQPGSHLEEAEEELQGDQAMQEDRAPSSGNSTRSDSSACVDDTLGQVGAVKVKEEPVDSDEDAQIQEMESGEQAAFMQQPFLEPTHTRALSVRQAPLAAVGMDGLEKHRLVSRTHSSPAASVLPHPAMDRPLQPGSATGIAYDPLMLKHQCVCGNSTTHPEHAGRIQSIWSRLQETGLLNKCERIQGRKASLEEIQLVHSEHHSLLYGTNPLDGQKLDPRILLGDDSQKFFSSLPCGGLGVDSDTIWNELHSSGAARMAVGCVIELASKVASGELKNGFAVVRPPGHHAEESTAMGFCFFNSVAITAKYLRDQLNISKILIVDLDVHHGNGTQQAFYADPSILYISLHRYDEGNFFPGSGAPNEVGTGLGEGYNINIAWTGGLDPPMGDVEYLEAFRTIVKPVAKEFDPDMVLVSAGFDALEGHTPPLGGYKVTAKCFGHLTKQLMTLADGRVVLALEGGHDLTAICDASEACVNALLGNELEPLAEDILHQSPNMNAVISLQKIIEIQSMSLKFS

[9] = molecular target: T1, Histone deacetylase 7 (Homo sapiens); test: Inhibition of HDAC7 (unknown origin) assessed as residual activity at 5.08 x 10^-10M (reference value: 102.66%); details: dose 5.08 10^-10M

SMILES: NC(=O)c1cccc2[nH]c(-c3ccc(NCc4ccc(C(=O)Nc5ccccc5N)cc4)cc3)nc12
- Activity [1]: 95.6%
- inhibition [2]: Active
- Activity [3]: 95.9%
- Activity [4]: 99.5%
- Activity [5]: 96.7%
- Activity [6]: 111%
- Activity (Histone deacetylase 3): 97.7%
- IC50 (HL-60): 690 nM
- Activity [7]: 93%
- Activity [8]: 88.5%
- Activity [9]: 93.4%
